Test results reported in US7803792B2, “Quaternary ammonium compounds” (Asahi Kasei Pharma Corporation, priority 2002, dated 2010).
pIC50: −log10 of the molar value.

Tests used:
[1] = tested on: Cholic acid-loaded rat model; assay: Bile acid-decreasing effect in portal vein of rats loaded with cholic acid (Test Example 2); format: in vivo; details: portal vein blood after 2 hours
Protocol: Bile Acid-Decreasing Effect in Portal Vein of Rats Loaded With Cholic Acid
In this test example, the test for confirming the bile acid-decreasing effect in portal vein of cholic acid-loaded rats was carried out according to the method described in Pharmacology and Therapeutics [Jpn Pharmacol. Ther., Vol. 24 Supplement, 1996, 103 (S-577)-110 (S-584)].
That is, 7 to 9 weeks old SD (IGS) rats were starved on the day before the test and thereafter. […] After 2 hours from the administration, a sample of blood was taken from a portal vein and total serum bile acid level was measured to study the effect of the test compound (n=6). Further, as a control group, a group (n=6) loaded with cholic acid (200 mg/kg) only was prepared and the same test procedure was followed. A commercially available kit (trade name: SOTANJUSAN-TEST WAKO-(SOTANJUSAN=total bile acid), manufactured by WAKO PURE CHEMICAL […], LTD.) was used for the measurement of bile acid. Assuming the value of the control group, which is a group in which no test compound was used, as 100%, the rate of decrease (percentage (%) of decrease) of the bile acid level when a fixed amount of the test compound was used was determined.

human IBAT = molecular target: T1, human IBAT (Homo sapiens, UniProt Q12908); assay: In vitro assay of temporarily expressed human IBAT transporter using Cos 7 cells (Test Example 8); format: cell-based; details: Cos 7 cells temporarily expressing human IBAT; [3H] taurocholate 8 μM, 37° C., 60 minutes
T1 construct: expressed in transfected cells; host or cells: Cos 7
T1 sequence (Q12908 1-348): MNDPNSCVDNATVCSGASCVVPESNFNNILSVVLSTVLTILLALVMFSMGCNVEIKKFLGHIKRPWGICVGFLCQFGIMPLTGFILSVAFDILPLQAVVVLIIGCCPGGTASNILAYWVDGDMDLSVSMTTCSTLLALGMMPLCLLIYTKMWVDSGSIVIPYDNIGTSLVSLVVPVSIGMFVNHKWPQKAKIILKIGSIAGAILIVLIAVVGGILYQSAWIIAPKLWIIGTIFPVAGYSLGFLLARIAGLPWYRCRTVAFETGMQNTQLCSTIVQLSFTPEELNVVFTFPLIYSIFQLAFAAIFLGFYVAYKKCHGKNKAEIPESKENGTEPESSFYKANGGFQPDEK
Protocol: In Vitro Assay of Compounds Which Inhibit Temporarily Expressed Human IBAT Transporter or Rat IBAT Transporter Using Cos 7 Cells
In this test example, the in vitro assay of the compounds which inhibit temporarily expressed human IBAT transporter or rat IBAT transporter using Cos cells was carried out according to the method described in Am. J. Physiol., 274, G157-169.
That is, […] Cos 7 were inoculated on a 24-well cell plate. One day later, 0.3 μg per well of cDNA of a human IBAT or a rat IBAT was transfected by using FuGENE6 (manufactured by ROCHE PHARMACEUTICAL CO., LTD.). For the assay, the cells cultured for one day after the transfection were used and the following procedure was followed. The cells were washed once with an assay buffer, Hank's buffer solution containing 25 mM glucose and with 10 mM HEPES (pH 7.4), and then the assay buffer was replaced by an assay buffer to which the test compound was added. After adding [^3H] taurocholate to a final concentration of 8 μM, the cells were incubated at 37° C. for 60 minutes. [^3H] taurocholate was allowed to be incorporated in Cos 7 cells through human IBAT or rat IBAT. The reaction was stopped by washing twice with a buffer prepared by adding 1 mM taurocholate to the assay buffer and lyzing the cells with 0.2M NaOH. Measurement of radioactivity was carried out by introducing the cell lyzate in 4 ml of liquid scintillation cocktail, stirring the mixture well, and then measuring the radioactivity by a scintillation counter.

Caco 2 cells = assay: Toxicity with respect to alimentary canal: cytotoxicity to Caco 2, LDH activity (Test Example 12); format: cell-based, human; details: LDH activity after 2 hours, relative to cytolytic agent = 100%
Protocol: Toxicity With Respect to Alimentary Canal
To evaluate the toxicity of the compounds of the present invention to the alimentary canal, the cytotoxicity to Caco 2, which is a human originated small intestine epithelial cell line, was tested by referring to the method of Bestwick C S et al. [Biochimica et Biophysica Acta 1474: 47-55, 1999].
That is, Caco 2 cells (purchased from ATCC) were inoculated on a 96-well plate such that there were 10,000 cells/well [MEM-E medium, 10% FBS (Fetal Bovine Serum), 1% NEAA (Non Essential Amino Acid) solution, (both manufactured by GIBCO PHARMACEUTICAL COMPANY)]. After culturing for 48 hours, the test compounds were diluted with the culture medium and added to the respective wells. After 2 hours, 50 μl of the culture broth was collected and the LDH activity in the collected culture broth was measured by using an LDH activity measuring kit (CytoTox 96 Non-Radioactive Cytotoxicity Assay, manufactured by PROMEGA CORPORATION). Relative activities were calculated assuming the LDH activity as 100% when the Caco 2 cells were treated with the cytolytic agent and the obtained relative activities were taken as cytotoxicities to Caco 2 cell.

[2] = 0.1 mg/kg oral with cholic acid 200 mg/kg, HCO-60 0.1%
[3] = 0.3 mg/kg oral with cholic acid 200 mg/kg, HCO-60 0.1%

SMILES | Rate of decrease (%) of bile acid ([1]; 0.1 mg/kg oral with cholic acid 200 mg/kg, Tween 20 0.05%) [%] | pIC50 (human IBAT) | Rate of decrease (%) of bile acid [1, 2] [%] | Toxicity (%) to Caco 2 (Caco 2 cells; 3 μM) [%] | Toxicity (%) to Caco 2 (Caco 2 cells; 10 μM) [%] | Toxicity (%) to Caco 2 (Caco 2 cells; 30 μM) [%] | Rate of decrease (%) of bile acid [1, 3] [%]
CCCCC1(CCCC)CS(=O)(=O)c2ccc(N(C)C)cc2C(c2cccc(NC(=S)NCCC[N+](C)(C)Cc3ccccc3)c2)N1.[Br-] (stereo not drawn) [Example 425] | 21 | 6.77 |  |  |  |  | 
CCCCC1(CCCC)CS(=O)(=O)c2ccc(N(C)C)cc2C(c2cccc(NC(=S)NCCCC[N+](C)(C)Cc3ccccc3)c2)N1.[Br-] (stereo not drawn) [Example 801] |  |  | 33 |  |  |  | 
CCCCC1(CCCC)CS(=O)(=O)c2ccc(N(C)C)cc2C(c2cccc(NC(=S)NCCCCC[N+](C)(C)Cc3ccccc3)c2)N1.[Br-] (stereo not drawn) [Example 1178] |  | 7.03 | 18 |  |  |  | 
CCCCC1(CCCC)CS(=O)(=O)c2ccc(N(C)C)cc2C(c2cccc(NC(=S)Nc3ccc(C[N+](C)(C)CCCC)cc3)c2)N1.[Br-] (stereo not drawn) [Example 3409] |  | 7.35 | 28 | <1 | <1 | <1 | 
CCCCC1(CCCC)CS(=O)(=O)c2ccc(N(C)C)cc2C(c2cccc(NC(=S)Nc3ccc(C[N+]4(Cc5ccccc5)CCC(CO)CC4)cc3)c2)N1.[Br-] (stereo not drawn) [Example 3607] |  | 7.39 | 36 | <1 | <1 | <1 | 
CCCCC1(CCCC)CS(=O)(=O)c2ccc(N(C)C)cc2C(c2cccc(NC(=S)Nc3ccc(C[N+]4(Cc5ccccc5)CCC(CCO)CC4)cc3)c2)N1.[Br-] (stereo not drawn) [Example 3608] |  | 7.23 | 43 | <1 | <1 | <1 | 
CCCCC1(CCCC)CS(=O)(=O)c2ccc(N(C)C)cc2C(c2cccc(NC(=S)Nc3ccc(C[n+]4ccc(CC)cc4)cc3)c2)N1.[Br-] (stereo not drawn) [Example 3710] |  | 7.28 | 20 | <1 | <1 | <1 | 
CCCCC1(CCCC)CS(=O)(=O)c2ccc(N(C)C)cc2C(c2cccc(NC(=S)Nc3ccc(C[n+]4ccc(C#N)cc4)cc3)c2)N1.[Br-] (stereo not drawn) [Example 3753] |  |  |  |  |  |  | 8.5
CCCCC1(CCCC)CS(=O)(=O)c2ccc(N(C)C)cc2C(c2cccc(NC(=S)Nc3ccc(C[n+]4cccc(CC#N)c4)cc3)c2)N1.[Br-] (stereo not drawn) [Example 3759] |  |  |  | <1 | <1 | <1 | 36
CCCCC1(CCCC)CS(=O)(=O)c2ccc(N(C)C)cc2C(c2cccc(NC(=S)Nc3cccc(C[N+](C)(C)Cc4ccccc4)c3)c2)N1.[Br-] (stereo not drawn) [Example 4257] |  |  | 30 |  |  |  | 
CCCCC1(CCCC)CS(=O)(=O)c2ccc(N(C)C)cc2C(c2cccc(NC(=S)Nc3cccc(C[N+]4(Cc5ccccc5)CCC(CO)CC4)c3)c2)N1 (stereo not drawn) [Example 4424] |  | 7.04 | 17 |  |  |  | 
CCCCC1(CCCC)CS(=O)(=O)c2ccc(N(C)C)cc2C(c2cccc(NC(=S)Nc3cccc(C[N+]4(Cc5ccccc5)CCC(CCO)CC4)c3)c2)N1 (stereo not drawn) [Example 4425] |  | 7.05 | 22 |  |  |  | 
CCCCC1(CCCC)CS(=O)(=O)c2ccc(N(C)C)cc2C(c2cccc(NC(=S)Nc3cccc(C[N+]45CCC(CC4)CC5)c3)c2)N1 (stereo not drawn) [Example 4512] |  | 7.20 | 37 |  |  |  | 
CCCCC1(CCCC)CS(=O)(=O)c2ccc(N(C)C)cc2C(c2cccc(NC(=S)Nc3ccccc3C[N+]34CCC(CC3)CC4)c2)N1.[Br-] (stereo not drawn) [Example 4905] |  |  | 28 |  |  |  | 
CCCCC1(CCCC)CS(=O)(=O)c2ccc(N(C)C)cc2C(c2ccc(NC(=S)Nc3ccc(C[N+](C)(C)Cc4ccccc4)cc3)cc2)N1.[Br-] (stereo not drawn) [Example 5405, Benzyl-(4-{3-[4-(3,3-dibutyl-7-dimethylamino-1,1-dioxo-2,3,4,5-tetrahydro-1,4-benzothiazepin-5-yl)phenyl]thioureido}-benzyl)dimethylammonium bromide] |  |  | 16 |  |  |  | 
